Values of other authors, collected in patent US20250231185A1, “Coronavirus T Cell Epitopes, Megapools and Uses Thereof” (La Jolla Institute for Immunology, priority 2021, published 2025).
Read-outs that look alike come from different tables or passages of the source.

Test system: CD8+ T cells
Details: cited from earlier work
[1] = T cell type (CD4 or CD8) recognizing the SARS-CoV-2 epitope
[2] = CD8R (D) megapool epitopes, dominant = recognized by 3 or more donors/different studies
[3] = T cell subset (CD4 or CD8) recognizing the SARS-CoV-2-derived epitope
[4] = SARS-CoV-2 Ag S, T cell type recognizing the epitope
[5] = CD8RE megapool peptides (non-spike SARS-CoV-2 antigens), dominant epitope Yes/No
[6] = SARS-CoV-2-derived CD8 epitopes, dominant = recognized by 3 or more donors/different studies

For 976 (SAKNRARTV) [compound 976], the Restriction [1] is given as “CD8”.
In the case of 1015 (SRYWEPEF) [compound 1015], the Restriction [1] is given as “CD8”.
For 1817 (KLGSLVVRC) [compound 1817], the Dominant [2] is listed as “Yes (more dominant epitopes are defined by being recognized by 3 or more donors/different studies)”.
In the case of 1733 (VVYRGTTTY) [compound 1733], the Dominant [2] is listed as “Yes (more dominant epitopes are defined by being recognized by 3 or more donors/different studies)”.
In the case of 1028 (YRGTTTYKL) [compound 1028], the Restriction [1] is given as “CD8”.
In the case of 608 (EAKKVKPTV) [compound 608], the Restriction [3] is given as “CD8”.
For 1786 (MPASWVMRI) [compound 1786], the Dominant [2] is given as “Yes (more dominant epitopes are defined by being recognized by 3 or more donors/different studies)”.
In the case of 1413 (LITGRLQSL) [compound 1413], the Restriction [4] is given as “CD8”.
For 1058 (LLADKFPVL) [compound 1058], the Restriction [1] is given as “CD8”.
In the case of 684 (DVFYKENSY) [compound 684], the Restriction [3] is given as “CD8”.
For 2963 (LYLQYIRKL) [compound 2963], the Dominant [5] is listed as “Yes (more dominant epitopes are defined by being recognized by 3 or more donors/different studies)”.
For 1393 (QIPFAMQMAY) [compound 1393], the Restriction [4] is listed as “CD8”.
For 935 (VENPDILRVY) [compound 935], the Restriction [1] is listed as “CD8”.
In the case of 526 (RRGPEQTQGNF) [compound 526], the Restriction [3] is given as “CD8”.
In the case of 2959 (DTDFVNEFY) [compound 2959], the Dominant [5] is given as “Yes (more dominant epitopes are defined by being recognized by 3 or more donors/different studies)”.
For 635 (KLMPVCVET) [compound 635], the Restriction [3] is given as “CD8”.
For 666 (MSALNHTKKW) [compound 666], the Restriction [3] is given as “CD8”.
For 993 (FVNEFYAYLR) [compound 993], the Restriction [1] is listed as “CD8”.
For 965 (FVVEVVDKY) [compound 965], the Restriction [1] is given as “CD8”.
In the case of 657 (LRVEAFEYY) [compound 657], the Restriction [3] is given as “CD8”.
In the case of 1457 (QELGKYEQY) [compound 1457], the Restriction [4] is listed as “CD8”.
In the case of 967 (KSAGFPFNKW) [compound 967], the Restriction [1] is listed as “CD8”.
For 1412 (ITGRLQSLQTY) [compound 1412], the Restriction [4] is given as “CD8”.
For 3025 (SEFSSLPSY) [compound 3025], the Dominant [5] is given as “Yes (more dominant epitopes are defined by being recognized by 3 or more donors/different studies)”.
In the case of 3037 (IPIQASLPF) [compound 3037], the Dominant [5] is given as “Yes (more dominant epitopes are defined by being recognized by 3 or more donors/different studies)”.
In the case of 559 (HLKDGTCGL) [compound 559], the Restriction [3] is listed as “CD8”.
For 1680 (RYRIGNYKL) [compound 1680], the Dominant [2] is given as “Yes (more dominant epitopes are defined by being recognized by 3 or more donors/different studies)”.
In the case of 662 (TTDPSFLGRYM) [compound 662], the Dominant [6] is listed as “Yes (more dominant epitopes are defined by being recognized by 3 or more donors/different studies)” and the Restriction [3] is listed as “CD8”.
For 2984 (KQFDTYNLW) [compound 2984], the Dominant [5] is listed as “Yes (more dominant epitopes are defined by being recognized by 3 or more donors/different studies)”.
For 2913 (ATSRTLSYY) [compound 2913], the Dominant [5] is listed as “Yes (more dominant epitopes are defined by being recognized by 3 or more donors/different studies)”.
For 1394 (IPFAMQMAY) [compound 1394], the Restriction [4] is listed as “CD8”.
For 1697 (QQQQGQTVTK) [compound 1697], the Dominant [2] is listed as “Yes (more dominant epitopes are defined by being recognized by 3 or more donors/different studies)”.
For 2997 (PTDNYITTY) [compound 2997], the Dominant [5] is listed as “Yes (more dominant epitopes are defined by being recognized by 3 or more donors/different studies)”.
For 553 (KTFPPTEPKKDKKK) [compound 553], the Restriction [3] is given as “CD8”.
For 3000 (YLATALLTL) [compound 3000], the Dominant [5] is listed as “Yes (more dominant epitopes are defined by being recognized by 3 or more donors/different studies)”.
In the case of 1694 (LALLLLDRL) [compound 1694], the Dominant [2] is given as “Yes (more dominant epitopes are defined by being recognized by 3 or more donors/different studies)”.
In the case of 3018 (FLNRFTTTL) [compound 3018], the Dominant [5] is given as “Yes (more dominant epitopes are defined by being recognized by 3 or more donors/different studies)”.
For 2977 (TYACWHHSI) [compound 2977], the Dominant [5] is given as “Yes (more dominant epitopes are defined by being recognized by 3 or more donors/different studies)”.
In the case of 516 (SQASSRSSSR) [compound 516], the Restriction [3] is given as “CD8”.
In the case of 991 (VRNLQHRLY) [compound 991], the Restriction [1] is given as “CD8”.
In the case of 1723 (MVMCGGSLYV) [compound 1723], the Dominant [2] is listed as “Yes (more dominant epitopes are defined by being recognized by 3 or more donors/different studies)”.
In the case of 1813 (KLFIRQEEV) [compound 1813], the Dominant [2] is given as “Yes (more dominant epitopes are defined by being recognized by 3 or more donors/different studies)”.
For 1420 (RVDFCGKGY) [compound 1420], the Restriction [4] is given as “CD8”.
In the case of 1062 (FTDGVCLFW) [compound 1062], the Restriction [1] is given as “CD8”.
For 598 (LEFGATSAAL) [compound 598], the Restriction [3] is listed as “CD8”.
In the case of 2987 (LLLDDFVEII) [compound 2987], the Dominant [5] is listed as “Yes (more dominant epitopes are defined by being recognized by 3 or more donors/different studies)”.
For 1781 (GTDLEGNFY) [compound 1781], the Dominant [2] is listed as “Yes (more dominant epitopes are defined by being recognized by 3 or more donors/different studies)”.
For 1099 (NPIQLSSYSL) [compound 1099], the Restriction [1] is listed as “CD8”.
For 1035 (FAIGLALYY) [compound 1035], the Restriction [1] is listed as “CD8”.
In the case of 1692 (NPANNAAIVL) [compound 1692], the Dominant [2] is given as “Yes (more dominant epitopes are defined by being recognized by 3 or more donors/different studies)”.
In the case of 1010 (QEYADVFHLY) [compound 1010], the Restriction [1] is given as “CD8”.
For 502 (SPRWYFYYL) [compound 502], the Dominant [6] is given as “Yes (more dominant epitopes are defined by being recognized by 3 or more donors/different studies)” and the Restriction [3] is given as “CD8”.
In the case of 2986 (KVDGVDVEL) [compound 2986], the Dominant [5] is given as “Yes (more dominant epitopes are defined by being recognized by 3 or more donors/different studies)”.
For 1465 (FDEDDSEPVL) [compound 1465], the Restriction [4] is listed as “CD8”.
In the case of 2998 (QEILGTVSW) [compound 2998], the Dominant [5] is given as “Yes (more dominant epitopes are defined by being recognized by 3 or more donors/different studies)”.
In the case of 2994 (KLVNKFLAL) [compound 2994], the Dominant [5] is listed as “Yes (more dominant epitopes are defined by being recognized by 3 or more donors/different studies)”.
In the case of 942 (KPYIKWDLL) [compound 942], the Restriction [1] is listed as “CD8”.
In the case of 1812 (RARSVSPKL) [compound 1812], the Dominant [2] is given as “Yes (more dominant epitopes are defined by being recognized by 3 or more donors/different studies)”.
In the case of 1709 (LPAADLDDF) [compound 1709], the Dominant [2] is given as “Yes (more dominant epitopes are defined by being recognized by 3 or more donors/different studies)”.
In the case of 566 (KTIQPRVEK) [compound 566], the Dominant [6] is given as “Yes (more dominant epitopes are defined by being recognized by 3 or more donors/different studies)” and the Restriction [3] is given as “CD8”.
In the case of 1039 (YVFCTVNAL) [compound 1039], the Restriction [1] is given as “CD8”.
In the case of 528 (QELIRQGTDYKHW) [compound 528], the Dominant [6] is listed as “Yes (more dominant epitopes are defined by being recognized by 3 or more donors/different studies)” and the Restriction [3] is listed as “CD8”.
In the case of 592 (SELLTPLGI) [compound 592], the Restriction [3] is listed as “CD8”.
For 3019 (SAFAMMFVK) [compound 3019], the Dominant [5] is listed as “Yes (more dominant epitopes are defined by being recognized by 3 or more donors/different studies)”.
In the case of 1044 (AVASKILGL) [compound 1044], the Restriction [1] is listed as “CD8”.
In the case of 531 (HWPQIAQF) [compound 531], the Restriction [3] is given as “CD8”.
For 1720 (RQLLFVVEV) [compound 1720], the Dominant [2] is listed as “Yes (more dominant epitopes are defined by being recognized by 3 or more donors/different studies)”.
In the case of 978 (IAATRGATV) [compound 978], the Restriction [1] is listed as “CD8”.
For 2995 (VTNNTFTLK) [compound 2995], the Dominant [5] is given as “Yes (more dominant epitopes are defined by being recognized by 3 or more donors/different studies)”.
For 660 (HTTDPSFLGRY) [compound 660], the Dominant [6] is given as “Yes (more dominant epitopes are defined by being recognized by 3 or more donors/different studies)” and the Restriction [3] is given as “CD8”.
For 1021 (QLYLGGMSYY) [compound 1021], the Restriction [1] is listed as “CD8”.
In the case of 686 (YTTTIKPVTY) [compound 686], the Restriction [3] is listed as “CD8”.
For 624 (APYIVGDVV) [compound 624], the Restriction [3] is listed as “CD8”.
For 1750 (NLWNTFTRL) [compound 1750], the Dominant [2] is listed as “Yes (more dominant epitopes are defined by being recognized by 3 or more donors/different studies)”.
In the case of 2930 (LLLLDRLNQL) [compound 2930], the Dominant [5] is given as “Yes (more dominant epitopes are defined by being recognized by 3 or more donors/different studies)”.
For 537 (SASAFFGMSR) [compound 537], the Restriction [3] is listed as “CD8”.
In the case of 953 (VVSTGYHFR) [compound 953], the Restriction [1] is listed as “CD8”.
In the case of 1752 (LLLDDFVEII) [compound 1752], the Dominant [2] is given as “Yes (more dominant epitopes are defined by being recognized by 3 or more donors/different studies)”.
In the case of 1676 (SELVIGAVIL) [compound 1676], the Dominant [2] is listed as “Yes (more dominant epitopes are defined by being recognized by 3 or more donors/different studies)”.
In the case of 2904 (KLLEQWNLV) [compound 2904], the Dominant [5] is listed as “Yes (more dominant epitopes are defined by being recognized by 3 or more donors/different studies)”.
For 1683 (KFPRGQGVPI) [compound 1683], the Dominant [2] is given as “Yes (more dominant epitopes are defined by being recognized by 3 or more donors/different studies)”.
For 2979 (IEYPIIGDEL) [compound 2979], the Dominant [5] is given as “Yes (more dominant epitopes are defined by being recognized by 3 or more donors/different studies)”.
In the case of 1364 (KTSVDCTMYI) [compound 1364], the Restriction [4] is given as “CD8”.
For 1022 (KPPISFPL) [compound 1022], the Restriction [1] is given as “CD8”.
For 500 (MKDLSPRWY) [compound 500], the Restriction [3] is listed as “CD8”.
